Experimental findings from US11505543B2, “4-oxo-3,4-dihydroquinazoline compounds as inhibitors of human immunodeficiency virus replication” (VIIV HEALTHCARE UK (NO.5) LIMITED, priority 2018, dated 2022) are described below.

Series [1] is described as follows: Compound cytotoxicity, XTT-based colorimetric assay. It counts as cell-based. The following applies: human, uninfected MT2 cells, day 4, XTT. A digest of the protocol: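 Run under the antiviral-assay protocol but without virus. Viability was read on day 4 and CC50 values were derived from the readout.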
In general terms: Tetrazolium assays rely on reduction of a dye to a coloured formazan, in cell work by metabolically active cells.

The subject of series [2] is recombinant NL4-3 virus (nef section replaced with Renilla luciferase gene) in MT-2 cells. The series is described as follows: HIV cell culture assay (antiviral activity, luciferase readout). As to conditions: serial dilutions of compound. It is filed as cell-based. The gist of the method:
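Test compound in serial dilution was present while MT-2 cells were infected for 4–5 days with recombinant NL4-3 virus made in 293T cells. Antiviral activity was quantified as Renilla luciferase activity, read with a live-cell substrate. EC50 came from the median-effect equation.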

[3] abbreviates: Renilla, NL43, MT-2 cells infected for 4-5 days with recombinant NL4-3 Renilla luciferase virus.

In series [1], `Cc1nccnc1-c1ccc2c(=O)n(-c3ccc(Cl)c4c(NS(C)(=O)=O)nn(CC(F)(F)F)c34)c([C@H](Cc3cc(F)cc(F)c3)NC(=O)Cn3nc(C(F)F)c4c3C(F)(F)[C@@H]3C[C@H]43)nc2c1` [Example 165, N-((S)-1-(3-(4-chloro-3-(methylsulfonamido)-1-(2,2,2-trifluoroethyl)-1H-indazol-7-yl)-7-(3-methylpyrazin-2-yl)-4-oxo-3,4-dihydroquinazolin-2-yl)-2-(3,5-difluorophenyl)ethyl)-2-((3bS,4aR)-3-(difluoromethyl)-5,5-difluoro-3b,4,4a,5-tetrahydro-1H-cyclopropa[3,4]cyclopenta[1,2-c]pyrazol-1-yl)acetamide] came in with a CC50 at 4 day of more than 500 nM. Besides, the EC50 in series [2] (setting [3]) worked out at 0.05 nM.
`Cc1noc(C)c1-c1ccc2c(=O)n(-c3ccc(Cl)c4c(NS(C)(=O)=O)nn(C)c34)c([C@H](Cc3cc(F)cc(F)c3)NC(=O)Cn3nc(C(F)F)c4c3C(F)(F)[C@@H]3C[C@H]43)nc2c1` (atropisomer, axis not shown; (aR)) [Example 94, N-((S)-1-(3-(4-chloro-1-methyl-3-(methylsulfonamido)-1H-indazol-7-yl)-7-(3,5-dimethylisoxazol-4-yl)-4-oxo-3,4-dihydroquinazolin-2-yl)-2-(3,5-difluorophenyl)ethyl)-2-((3bS,4aR)-3-(difluoromethyl)-5,5-difluoro-3b,4,4a,5-tetrahydro-1H-cyclopropa[3,4]cyclopenta[1,2-c]pyrazol-1-yl)acetamide] displayed a half-maximal cytotoxic concentration (CC50) at 4 day in series [1] of more than 1000 nM. Moreover, the EC50 in series [2] (setting [3]) amounted to 0.44 nM.
For the molecule `O=C(Cn1nc(C(F)F)c2c1C(F)(F)[C@@H]1C[C@H]21)N[C@@H](Cc1cc(F)cc(F)c1)c1nc2cc(-c3cccc(F)c3F)ccc2c(=O)n1-c1ccc(S(=O)(=O)N2CCOCC2)cc1` [Example 149, 2-((3bS,4aR)-3-(difluoromethyl)-5,5-difluoro-3b,4,4a,5-tetrahydro-1H-cyclopropa[3,4]cyclopenta[1,2-c]pyrazol-1-yl)-N-((S)-2-(3,5-difluorophenyl)-1-(7-(2,3-difluorophenyl)-3-(4-(morpholinosulfonyl)phenyl)-4-oxo-3,4-dihydroquinazolin-2-yl)ethyl)acetamide], in series [1], the CC50 at 4 day is more than 1000 nM. Also, in series [2] (setting [3]), the EC50 was 8.1 nM.
As to `O=C(Cn1nc(C(F)F)c2c1C(F)(F)[C@@H]1C[C@H]21)N[C@@H](Cc1cc(F)cc(F)c1)c1nc2cc(-c3cc(F)ccc3F)ccc2c(=O)n1-c1ccc(S(=O)(=O)N2CCOCC2)cc1` [Example 29, 2-((3bS,4aR)-3-(difluoromethyl)-5,5-difluoro-3b,4,4a,5-tetrahydro-1H-cyclopropa[3,4]cyclopenta[1,2-c]pyrazol-1-yl)-N-((S)-2-(3,5-difluorophenyl)-1-(7-(2,5-difluorophenyl)-3-(4-(morpholinosulfonyl)phenyl)-4-oxo-3,4-dihydroquinazolin-2-yl)ethyl)acetamide], the 50% cytotoxic concentration (CC50) at 4 day in series [1] is more than 1000 nM. Besides, the EC50 in series [2] (setting [3]) was determined as 2.9 nM.
For the molecule `Cc1cc(F)ccc1-c1ccc2c(=O)n(-c3ccc(Cl)c4c(NS(C)(=O)=O)nn(C)c34)c([C@H](Cc3cc(F)cc(F)c3)NC(=O)Cn3nc(C(F)F)c4c3C(F)(F)[C@@H]3C[C@H]43)nc2c1` [Example 188, N-((S)-1-(3-(4-chloro-1-methyl-3-(methylsulfonamido)-1H-indazol-7-yl)-7-(4-fluoro-2-methylphenyl)-4-oxo-3,4-dihydroquinazolin-2-yl)-2-(3,5-difluorophenyl)ethyl)-2-((3bS,4aR)-3-(difluoromethyl)-5,5-difluoro-3b,4,4a,5-tetrahydro-1H-cyclopropa[3,4]cyclopenta[1,2-c]pyrazol-1-yl)acetamide], in series [1], the CC50 at 4 day is more than 1000 nM. Also, the concentration giving a half-maximal response (EC50) in series [2] (setting [3]) worked out at 1.7 nM.
In turn, `Cc1nn(C)c(C)c1-c1ccc2c(=O)n(-c3ccc(Cl)c4c(NS(C)(=O)=O)nn(C)c34)c([C@H](Cc3cc(F)cc(F)c3)NC(=O)Cn3nc(C(F)F)c4c3C(F)(F)[C@@H]3C[C@H]43)nc2c1` (atropisomer, axis not shown; (aR)) [Example 60, N-((S)-1-(3-(4-chloro-1-methyl-3-(methylsulfonamido)-1H-indazol-7-yl)-4-oxo-7-(1,3,5-trimethyl-1H-pyrazol-4-yl)-3,4-dihydroquinazolin-2-yl)-2-(3,5-difluorophenyl)ethyl)-2-((3bS,4aR)-3-(difluoromethyl)-5,5-difluoro-3b,4,4a,5-tetrahydro-1H-cyclopropa[3,4]cyclopenta[1,2-c]pyrazol-1-yl)acetamide] had a CC50 at 4 day in series [1] of more than 1000 nM. Also, the EC50 in series [2] (setting [3]) came to 0.32 nM.
Take `Cn1nc(NS(C)(=O)=O)c2c(Cl)ccc(-n3c([C@H](Cc4cc(F)cc(F)c4)NC(=O)Cn4ccc(C5CC5)n4)nc4cc(-c5ccccc5F)ccc4c3=O)c21` (single isomer, unassigned) [Example 3]: the 50% cytotoxic concentration (CC50) at 4 day in series [1] was more than 1000 nM. Also, the EC50 in series [2] (MT-2 cells infected for 4-5 days with recombinant NL4-3 Renilla luciferase virus) was 63.1 nM.
Take `CC(C)c1cccc(-c2ccc3c(=O)n(-c4ccc(Cl)c5c(NS(C)(=O)=O)nn(C)c45)c([C@H](Cc4cc(F)cc(F)c4)NC(=O)Cn4nc(C(F)F)c5c4C(F)(F)[C@@H]4C[C@H]54)nc3c2)c1` (atropisomer, axis not shown; (aR)) [Example 41, N-((S)-1-(3-(4-chloro-1-methyl-3-(methylsulfonamido)-1H-indazol-7-yl)-7-(3-isopropylphenyl)-4-oxo-3,4-dihydroquinazolin-2-yl)-2-(3,5-difluorophenyl)ethyl)-2-((3bS,4aR)-3-(difluoromethyl)-5,5-difluoro-3b,4,4a,5-tetrahydro-1H-cyclopropa[3,4]cyclopenta[1,2-c]pyrazol-1-yl)acetamide]: in series [1], the CC50 at 4 day was more than 1000 nM. In addition, the EC50 in series [2] (setting [3]) is 4.5 nM.
`COc1ccc(-c2ccc3c(=O)n(-c4ccc(Cl)c5c(NS(C)(=O)=O)nn(C)c45)c([C@H](Cc4cc(F)cc(F)c4)NC(=O)Cn4nc(C(F)F)c5c4C(F)(F)[C@@H]4C[C@H]54)nc3c2)cc1` [Example 156, N-((S)-1-(3-(4-chloro-1-methyl-3-(methylsulfonamido)-1H-indazol-7-yl)-7-(4-methoxyphenyl)-4-oxo-3,4-dihydroquinazolin-2-yl)-2-(3,5-difluorophenyl)ethyl)-2-((3bS,4aR)-3-(difluoromethyl)-5,5-difluoro-3b,4,4a,5-tetrahydro-1H-cyclopropa[3,4]cyclopenta[1,2-c]pyrazol-1-yl)acetamide]: the CC50 at 4 day in series [1] is more than 500 nM. Further, the EC50 in series [2] (setting [3]) worked out at 0.79 nM.
In turn, `CC(C)S(=O)(=O)c1ccccc1-c1ccc2c(=O)n(-c3ccc(Cl)c4c(NS(C)(=O)=O)nn(C)c34)c([C@H](Cc3cc(F)cc(F)c3)NC(=O)Cn3nc(C(F)F)c4c3C(F)(F)[C@@H]3C[C@H]43)nc2c1` (atropisomer, axis not shown; (aR)) [Example 120, N-((S)-1-(3-(4-chloro-1-methyl-3-(methylsulfonamido)-1H-indazol-7-yl)-7-(2-(isopropylsulfonyl)phenyl)-4-oxo-3,4-dihydroquinazolin-2-yl)-2-(3,5-difluorophenyl)ethyl)-2-((3bS,4aR)-3-(difluoromethyl)-5,5-difluoro-3b,4,4a,5-tetrahydro-1H-cyclopropa[3,4]cyclopenta[1,2-c]pyrazol-1-yl)acetamide] registered a CC50 at 4 day in series [1] of more than 500 nM. The EC50 in series [2] (setting [3]) was 0.13 nM.
Take `O=C(Cn1nc(C(F)F)c2c1C(F)(F)[C@@H]1C[C@H]21)N[C@@H](Cc1cc(F)cc(F)c1)c1nc2cc(-c3ccncc3)ccc2c(=O)n1-c1ccc(S(=O)(=O)N2CCOCC2)cc1` [Example 69, 2-((3bS,4aR)-3-(difluoromethyl)-5,5-difluoro-3b,4,4a,5-tetrahydro-1H-cyclopropa[3,4]cyclopenta[1,2-c]pyrazol-1-yl)-N-((S)-2-(3,5-difluorophenyl)-1-(3-(4-(morpholinosulfonyl)phenyl)-4-oxo-7-(pyridin-4-yl)-3,4-dihydroquinazolin-2-yl)ethyl)acetamide]: in series [1], the CC50 at 4 day is more than 1000 nM. For the same molecule, in series [2] (setting [3]), the EC50 stood at 1 nM.
Turning to `Cn1nc(NS(C)(=O)=O)c2c(Cl)ccc(-n3c([C@H](Cc4cc(F)cc(F)c4)NC(=O)Cn4nc(C(F)F)c5c4C(F)(F)[C@@H]4C[C@H]54)nc4cc(-c5cccc(S(C)(=O)=O)c5)ccc4c3=O)c21` (atropisomer, axis not shown; (aR)) [Example 54, N-((S)-1-(3-(4-chloro-1-methyl-3-(methylsulfonamido)-1H-indazol-7-yl)-7-(3-(methylsulfonyl)phenyl)-4-oxo-3,4-dihydroquinazolin-2-yl)-2-(3,5-difluorophenyl)ethyl)-2-((3bS,4aR)-3-(difluoromethyl)-5,5-difluoro-3b,4,4a,5-tetrahydro-1H-cyclopropa[3,4]cyclopenta[1,2-c]pyrazol-1-yl)acetamide], the CC50 at 4 day in series [1] is more than 1000 nM. In series [2] (setting [3]), the EC50 stood at 0.21 nM.
On to `Cn1nc(NS(C)(=O)=O)c2c(Cl)ccc(-n3c([C@H](Cc4cc(F)cc(F)c4)NC(=O)Cn4nc(C(F)F)c5c4C(F)(F)[C@@H]4C[C@H]54)nc4cc(-c5cc(F)c(F)c(F)c5)ccc4c3=O)c21` (atropisomer, axis not shown; (aR)) [Example 108, N-((S)-1-(3-(4-chloro-1-methyl-3-(methylsulfonamido)-1H-indazol-7-yl)-4-oxo-7-(3,4,5-trifluorophenyl)-3,4-dihydroquinazolin-2-yl)-2-(3,5-difluorophenyl)ethyl)-2-((3bS,4aR)-3-(difluoromethyl)-5,5-difluoro-3b,4,4a,5-tetrahydro-1H-cyclopropa[3,4]cyclopenta[1,2-c]pyrazol-1-yl)acetamide], for which, in series [1], the CC50 at 4 day is more than 1000 nM. Besides, the EC50 in series [2] (setting [3]) is 0.78 nM.

For orientation: CC50 means the concentration that lowers cell viability or growth by half. A lower CC50 goes with harm at low concentration. By EC50 is commonly meant the concentration needed to bring the measured effect to its halfway point.
